Experimental data from US8940302B2, “Predicting response to a HER inhibitor” (Genentech, Inc., priority 2007, dated 2015).

Experiments:
[1] = test system: platinum-resistant ovarian cancer, primary peritoneal carcinoma, or fallopian tube carcinoma; test: Randomized trial of gemcitabine + pertuzumab vs gemcitabine + placebo, PFS and OS by qRT-PCR HER3 (Examples 1 and 4); assay type: in vivo, human
Description: Patients who had progressed while receiving, or within 6 months of receiving, a platinum-based chemotherapy regimen were eligible for this study. Patients were randomized to receive either gemcitabine in combination with pertuzumab, or gemcitabine in combination with placebo. Patients treated herein included those who had not received a previous salvage regimen treatment for platinum-resistant disease prior to study entry, and those who had received one prior regimen for platinum-resistant disease. Gemcitabine was administered at 1000 mg/m^2 on days 1 and 8 of each 21 day cycle. Gemcitabine was infused first over 30 minutes. Dose reductions were permitted for toxicity. […] Subjects without progressive disease received treatment for up to 17 cycles, or 1 year. Patients had standard gemcitabine dose reduction and held doses as a result of cytopenias. […] Subsequent doses were at the reduced doses and were not increased. If dose reduction or holding a dose was required in more than 4 occasions, or if doses were held for more than 3 weeks, then gemcitabine was discontinued and with the approval of the treating physician and medical monitor, blinded drug was continued until disease progression. If Day 8 gemcitabine doses were held, then the Day 8 dose was omitted and the subsequent treatment was commenced with the next cycle (Day 22 of the previous cycle). Response was assessed at the end of Cycles 2, 4, 6, 8, 12 and 17. Measurable disease was assessed using the Response Evaluation Criteria for Solid Tumors (RECIST), by clinical evaluation and CT scan or equivalent. Response for subjects with evaluable disease was assessed according to changes to CA-125 and clinical and radiologic evidence of disease. Responses were confirmed 4-8 weeks after the initial documentation of response. The following outcome measures were assessed. Progression free survival, as determined by investigator assessment using RECIST or CA-125 changes, following initiation of assigned study treatment of all subjects in each arm. Formalin-fixed, paraffin embedded tissue (FFPET) samples obtained from the patients in this clinical trial were analyzed for EGFR, HER2, HER3, two HER ligands (amphiregulin and betacellulin), and G6PDH (a housekeeping gene) by qRT-PCR. The qRT-PCR assay was performed by TARGOS Molecular Pathology GmbH (Kassel, Germany) using Roche Diagnostic's lab lot kits. The workflow and analysis for performing the qRT-PCR assay on the clinical samples are depicted in FIGS. 27 and 28 herein. The efficacy results were assessed at 7.1 months median follow-up (range 1.3-20.3). There were 101 progression free survival (PFS) events at that time. […] P-values were estimated using stratified Cox model and stratified log-rank test by randomization stratification factors (ECOG PS, number of prior regimens for platinum resistant disease, and disease measurability). Patients with CDDP-R EOC were randomized to G+P or G+placebo. Treatment was given until progression or until unacceptable toxicity. The primary endpoint was PFS. A secondary objective was to evaluate efficacy outcomes in patients with HER2 activation-related expression profiles. A qRT-PCR assay using archival formalin-fixed paraffin-embedded tissue (FFPET), preformed as described above, allowed mRNA expression analysis of HER pathway genes, including HER1, HER2, HER3, amphiregulin, and betacellulin. Outcomes were described by low gene expression (<median) and by high gene expression (≧median).

[2] = test system: incurable, locally advanced, recurrent or metastatic solid tumors; settings: cited from earlier work
[3] = in vivo; cited from earlier work
[4] = test system: advanced, refractory, or recurrent ovarian cancer; test: Single arm phase II trial of single agent pertuzumab, PFS and OS by HER3 qRT-PCR (Example 2); assay type: in vivo, human; settings: for median survival: single agent pertuzumab, FIG. 25
Experimental: This example concerns a single arm, open label, multicenter phase II clinical trial of ovarian cancer patients. […] Tumor assessments were obtained after 2, 4, 6, 8, 12 and 16 cycles. Response Rate (RR) by RECIST was the primary endpoint. Safety and tolerability were additionally evaluated. Secondary endpoints were TTP, duration of response, duration of survival, pharmacokinetics (PK), and FOSI (cohort 2). qRT-PCR assays were performed on archived formalin fixed paraffin embedded tissue. Assay data is available for 46/117 patients. Here high HER3 expressors were in the greater than and equal to 75th percentile, while low HER3 expressors were in the less than 75th percentile.

[5] = test system: platinum-sensitive recurrent ovarian cancer; test: Randomized open-label Phase II study of pertuzumab with carboplatin-based standard chemotherapy (Example 3); assay type: in vivo, human; settings: FIGS. 32-35
Description: In this randomized, open-label Phase II clinical study, the efficacy and safety of pertuzumab treatment in combination with carboplatin-based standard chemotherapy was investigated in patients with platinum-sensitive recurrent ovarian cancer. The target sample size is 100-500 individuals. Target sample size is 148. Inclusion Criteria: • histologically confirmed ovarian, primary peritoneal, or fallopian tube cancer; • only 1 previous regimen, which must be platinum-based; • platinum-sensitive disease which is defined by a progression-free interval of greater than 6 months after completion of platinum-based chemotherapy. Exclusion Criteria: • previous radiotherapy; • previous treatment with an anti-cancer vaccine or any targeted therapy; • major surgery or traumatic injury within 4 weeks of study; • history or evidence of central nervous system metastases.

| Compound | OS (median months) ([1]; All Patients (n = 130)) [months] | PFS (median months) ([1]; All Patients (n = 130)) [months] | OS (median months) ([1]; High HER3 (N = 61), ≧median) [months] | PFS (median months) ([1]; High HER3 (N = 61), ≧median) [months] | OS (median months) ([1]; Low HER3 (N = 61), <median) [months] | PFS (median months) ([1]; Low HER3 (N = 61), <median) [months] | tolerability ([2]; in vivo, iv) | Tumor regression ([2]; patients evaluable for response, pertuzumab IV every 3 weeks) | confirmed partial responses ([2]; pertuzumab IV every 3 weeks) | mean clearance [3] [mL/day/kg] | mean terminal elimination half-life [3] [days] | median survival ([4]; high HER3 expressing patients (greater than and equal to 75th percentile)) [years] | median survival ([4]; low HER3 expressing patients (less than 75th percentile)) [years] | outcomes in terms of PFS and OS by HER3 expression ([4]; patients with low HER3 expression vs high) | pertuzumab activity (PFS) by HER3 expression ([1]; qRT-PCR HER3 cutoffs, FIGS. 14-15) | pertuzumab activity (PFS) by HER2:HER3 expression [5] | pertuzumab activity (PFS) by HER3 expression [5] |
| --- | --- | --- | --- | --- | --- | --- | --- | --- | --- | --- | --- | --- | --- | --- | --- | --- | --- |
| Cl.Nc1ccn([C@@H]2O[C@H](CO)[C@@H](O)C2(F)F)c(=O)n1 (single isomer, unassigned) [G + Placebo, 2′-deoxy-2′,2′-difluorocytidine monohydrochloride (b-isomer)] | 13.1 | 2.6 | 18.2 | 5.5 | 8.4 | 1.4 |  |  |  |  |  |  |  |  |  |  |  |
| pertuzumab: humanized HER2 antibody, HER dimerization inhibitor, comprising light and heavy chain amino acid sequences in SEQ ID NOS. 13 and 14 |  |  |  |  |  |  | generally well tolerated | 3 of 20 | Two | 2.69 to 3.74 | 15.3 to 27.6 | 1.80 | 3.31 | better outcomes in terms of PFS and OS | greatest in patients with HER3 low expressing tumors | greatest in patients with high HER2:HER3 expressing cancer | greatest in patients with HER3 low expressing cancer |
